Experimental data: patent US10435369B2, “Tricyclic sulfones as ROR gamma modulators” (BRISTOL-MYERS SQUIBB COMPANY, priority 2016, dated 2019)

Each compound was assayed against RORγ receptor (Homo sapiens, UniProt P51449) (assay: RORγ Gal4 reporter assay (Gal4-luciferase, inverse agonist activity)). Conditions: Jurkat cells stably over-expressing hRORγ; Gal4-luciferase reporter; overnight incubation; read-out: RORγ Gal4, IC50.
Type: cell-based
Description: General RORγ Gal4 Reporter Assay
IC50 values were determined.

Sequence of RORγ receptor (P51449 269-508): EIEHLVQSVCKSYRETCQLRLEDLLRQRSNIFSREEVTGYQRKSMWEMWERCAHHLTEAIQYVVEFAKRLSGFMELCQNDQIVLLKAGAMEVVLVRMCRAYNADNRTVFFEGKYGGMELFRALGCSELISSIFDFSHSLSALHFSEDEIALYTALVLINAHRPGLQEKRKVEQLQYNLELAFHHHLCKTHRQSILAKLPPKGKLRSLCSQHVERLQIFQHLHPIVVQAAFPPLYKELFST

Structure (SMILES)	IC50 [nM]
O=C(Nc1ccnc2[nH]ncc12)[C@@H]1CC[C@@]2(S(=O)(=O)c3ccc(F)cc3)c3ccc(C(F)(C(F)(F)F)C(F)(F)F)cc3CC[C@@H]12 [Example 27]	48
O=C([C@@H]1CC[C@@]2(S(=O)(=O)c3ccc(F)cc3)c3ccc(C(F)(C(F)(F)F)C(F)(F)F)cc3CC[C@@H]12)N1CCS(=O)(=O)CC1 [Example 40]	14
O=C([C@@H]1CC[C@@]2(S(=O)(=O)c3ccc(F)cc3)c3ccc(C(F)(C(F)(F)F)C(F)(F)F)cc3CC[C@@H]12)N1CC(F)(F)C(F)(F)C1 [Example 63]	21
O=C([C@@H]1CC[C@@]2(S(=O)(=O)c3ccc(F)cc3)c3ccc(C(F)(C(F)(F)F)C(F)(F)F)cc3CC[C@@H]12)N1CC(F)(F)C[C@@H]1CO [Example 64]	37
O=C([C@@H]1CC[C@@]2(S(=O)(=O)c3ccc(F)cc3)c3ccc(C(F)(C(F)(F)F)C(F)(F)F)cc3CC[C@@H]12)N1CCC(F)(F)C1 [Example 65]	13
NC(=O)[C@H]1CC(F)(F)CN1C(=O)[C@@H]1CC[C@@]2(S(=O)(=O)c3ccc(F)cc3)c3ccc(C(F)(C(F)(F)F)C(F)(F)F)cc3CC[C@@H]12 [Example 66]	15
CS(=O)(=O)N1CCC(NC(=O)[C@@H]2CC[C@@]3(S(=O)(=O)c4ccc(F)cc4)c4ccc(C(F)(C(F)(F)F)C(F)(F)F)cc4CC[C@@H]23)CC1 [Example 77]	4
O=C([C@@H]1CC[C@@]2(S(=O)(=O)c3ccc(F)cc3)c3ccc(C(F)(C(F)(F)F)C(F)(F)F)cc3CC[C@@H]12)N1CCC2(CCNC2=O)CC1 [Example 82]	18
O=C1CC2(CCN(C(=O)[C@@H]3CC[C@@]4(S(=O)(=O)c5ccc(F)cc5)c5ccc(C(F)(C(F)(F)F)C(F)(F)F)cc5CC[C@@H]34)CC2)CN1 [Example 83]	9
O=C1CC2(CCN(C(=O)[C@@H]3CC[C@@]4(S(=O)(=O)c5ccc(F)cc5)c5ccc(C(F)(C(F)(F)F)C(F)(F)F)cc5CC[C@@H]34)CC2)N1 [Example 84]	5
O=C([C@@H]1CC[C@@]2(S(=O)(=O)c3ccc(F)cc3)c3ccc(C(F)(C(F)(F)F)C(F)(F)F)cc3CC[C@@H]12)N1CCC2(CC1)CNC2=O [Example 85]	14
O=C(O)C1CCN(C(=O)[C@@H]2CC[C@@]3(S(=O)(=O)c4ccc(F)cc4)c4ccc(C(F)(C(F)(F)F)C(F)(F)F)cc4CC[C@@H]23)C1 (stereo partly shown) [Example 91]	40
O=C(O)C1CCN(C(=O)[C@@H]2CC[C@@]3(S(=O)(=O)c4ccc(F)cc4)c4ccc(C(F)(C(F)(F)F)C(F)(F)F)cc4CC[C@@H]23)C1 (stereo partly shown) [Example 92]	41
O=C(O)C1CCCC(NC(=O)[C@@H]2CC[C@@]3(S(=O)(=O)c4ccc(F)cc4)c4ccc(C(F)(C(F)(F)F)C(F)(F)F)cc4CC[C@@H]23)C1 (stereo partly shown) [Example 98]	22
O=C(O)C1CCCC(NC(=O)[C@@H]2CC[C@@]3(S(=O)(=O)c4ccc(F)cc4)c4ccc(C(F)(C(F)(F)F)C(F)(F)F)cc4CC[C@@H]23)C1 (stereo partly shown) [Example 99]	14
O=C(O)C1CCCC(NC(=O)[C@@H]2CC[C@@]3(S(=O)(=O)c4ccc(F)cc4)c4ccc(C(F)(C(F)(F)F)C(F)(F)F)cc4CC[C@@H]23)C1 (stereo partly shown) [Example 100]	53
O=C(N[C@H]1CC[C@H](C(=O)O)CC1)[C@@H]1CC[C@@]2(S(=O)(=O)c3ccc(F)cc3)c3ccc(C(F)(C(F)(F)F)C(F)(F)F)cc3CC[C@@H]12 [Example 102]	33

Structure (SMILES)	IC50 [nM]
O=C(NC12CCC(C(=O)O)(CC1)CC2)[C@@H]1CC[C@@]2(S(=O)(=O)c3ccc(F)cc3)c3ccc(C(F)(C(F)(F)F)C(F)(F)F)cc3CC[C@@H]12 [Example 103]	31
C[C@H]1CN(C(=O)[C@@H]2CC[C@@]3(S(=O)(=O)c4ccc(F)cc4)c4ccc(C(F)(C(F)(F)F)C(F)(F)F)cc4CC[C@@H]23)CC[C@@H]1C(=O)O [Example 105]	42
O=C(N[C@@H]1CC[C@@]2(S(=O)(=O)c3ccc(F)cc3)c3ccc(C(F)(C(F)(F)F)C(F)(F)F)cc3CC[C@@H]12)C1(O)CCS(=O)(=O)CC1 [Example 123, N-((3R,3aS,9bS)-9b-((4-fluorophenyl)sulfonyl)-7-(perfluoropropan-2-yl)-2,3,3a,4,5,9b-hexahydro-1H-cyclopenta[a]naphthalen-3-yl)-4-hydroxytetrahydro-2H-thiopyran-4-carboxamide 1,1-dioxide]	2
CS(=O)(=O)N1CCC(O)(C(=O)N[C@@H]2CC[C@@]3(S(=O)(=O)c4ccc(F)cc4)c4ccc(C(F)(C(F)(F)F)C(F)(F)F)cc4CC[C@@H]23)CC1 [Example 124]	7
O=C(O)[C@H]1CC[C@H](C(=O)N[C@@H]2CC[C@@]3(S(=O)(=O)c4ccc(F)cc4)c4ccc(C(F)(C(F)(F)F)C(F)(F)F)cc4CC[C@@H]23)CC1 [Example 139]	24
O=C(O)C1CC2(C1)CC(C(=O)N[C@@H]1CC[C@@]3(S(=O)(=O)c4ccc(F)cc4)c4ccc(C(F)(C(F)(F)F)C(F)(F)F)cc4CC[C@@H]13)C2 (stereo partly shown) [Example 141]	7
O=C(N[C@@H]1CC[C@@]2(S(=O)(=O)c3ccc(F)cc3)c3ccc(C(F)(C(F)(F)F)C(F)(F)F)cc3CC[C@@H]12)C1(O)CCS(=O)(=O)CC1 [Example 144]	40
Cc1ncn(C)c1C(=O)N[C@@H]1CC[C@@]2(S(=O)(=O)c3ccc(F)cc3)c3ccc(C(F)(C(F)(F)F)C(F)(F)F)cc3CC[C@@H]12 [Example 146]	13
Cc1nnsc1C(=O)N[C@@H]1CC[C@@]2(S(=O)(=O)c3ccc(F)cc3)c3ccc(C(F)(C(F)(F)F)C(F)(F)F)cc3CC[C@@H]12 [Example 147]	9
O=C(N[C@@H]1CC[C@@]2(S(=O)(=O)c3ccc(F)cc3)c3ccc(C(F)(C(F)(F)F)C(F)(F)F)cc3CC[C@@H]12)C1CCS(=O)(=O)CC1 [Example 149, N-((3R,3aS,9bS)-9b-((4-fluorophenyl)sulfonyl)-7-(perfluoropropan-2-yl)-2,3,3a,4,5,9b-hexahydro-1H-cyclopenta[a]naphthalen-3-yl)tetrahydro-2H-thiopyran-4-carboxamide 1,1-dioxide]	9
O=C(N[C@@H]1CC[C@@]2(S(=O)(=O)c3ccc(F)cc3)c3ccc(C(F)(C(F)(F)F)C(F)(F)F)cc3CC[C@@H]12)[C@H](O)C(F)(F)F [Example 157]	13
O=C(N[C@@H]1CC[C@@]2(S(=O)(=O)c3ccc(F)cc3)c3ccc(C(F)(C(F)(F)F)C(F)(F)F)cc3CC[C@@H]12)[C@@H](O)Cc1c[nH]cn1 [Example 158]	14
NC(=O)c1c(F)cc(C(=O)N[C@@H]2CC[C@@]3(S(=O)(=O)c4ccc(F)cc4)c4ccc(C(F)(C(F)(F)F)C(F)(F)F)cc4CC[C@@H]23)cc1F [Example 159]	3
O=C(N[C@@H]1CC[C@@]2(S(=O)(=O)c3ccc(F)cc3)c3ccc(C(F)(C(F)(F)F)C(F)(F)F)cc3CC[C@@H]12)c1cccnc1O [Example 161]	16
O=C(O)c1ccc(C(=O)N[C@@H]2CC[C@@]3(S(=O)(=O)c4ccc(F)cc4)c4ccc(C(F)(C(F)(F)F)C(F)(F)F)cc4CC[C@@H]23)cc1 [Example 162]	22
CS(=O)(=O)N1CC(O)(C(=O)N[C@@H]2CC[C@@]3(S(=O)(=O)c4ccc(F)cc4)c4ccc(C(F)(C(F)(F)F)C(F)(F)F)cc4CC[C@@H]23)C1 [Example 168]	28
O=C(N[C@@H]1CC[C@@]2(S(=O)(=O)c3ccc(F)cc3)c3ccc(C(F)(C(F)(F)F)C(F)(F)F)cc3CC[C@@H]12)c1ccc(=O)[nH]c1 [Example 188]	9
